{"source": "patent US9877981B2", "about": "“NAD biosynthesis and precursors for the treatment and prevention of cancer and proliferation” (President and Fellows of Harvard College, priority 2012, dated 2018)", "key": {"PGC-1α/β KO myotubes": {"system": "PGC-1α/β KO myotubes", "test": "qPCR of ETC genes in PGC-1α/β KO myotubes", "type": "cell-based, mouse", "set-up": "expression of mitochondrially-encoded ETC genes (ND1, CYTB, COX1, ATP6): dose or concentration left out as unconfirmed", "protocol": "Primary myoblasts cells were isolated from WT, SIRT1 KO (Price et al., 2012) and PGC-1α/β KO (Zechner et al., 2010) mice as previously described (Price et al., 2012). WT and PGC-1α/β KO primary myoblasts were plated and allowed to differentiate into myotubes by replacing the media with low glucose DMEM supplemented with 2% horse serum (Sigma-Aldrich) for 4 days. After the differentiation the cells were infected with empty vector or flag-SIRT1 adenovirus as described before (Gerhart-Hines et al., 2007). Media was replaced with fresh DMEM supplemented with 2% horse serum (Sigma-Aldrich) for an additional 48 hr and, after that the cells were harvested for the different assays as described. To investigate the role of HIF-1α in genome asynchrony, PGC-1α/β KO primary myotubes were treated for 12 hours with 1 mM DMOG (Sigma) or 10 μM DFO (Sigma), 24 h after infection with empty vector of flag-SIRT1 adenovirus or after 12 h treatment with […] NMN (Sigma).\nRNA from skeletal muscle tissue and C2C12 cells were extracted with RNeasy mini kit (Qiagen) according to the instructions and quantified using the NanoDrop 1000 spectrophotometer (Thermo Scientific). cDNA was synthesized with the iSCRIP cDNA synthesis kit (BioRad) using 600 ng of RNA. Quantitative RT-PCR reactions were performed using 1 μM of primers and LightCycler® 480 SYBR Green Master (Roche) on an LightCycler® 480 detection system (Roche). Calculations were performed by a comparative method (2-ΔCT) using 18S as an internal control. For mtDNA analysis, total DNA was extracted with DNeasy blood and tissue kit (Qiagen). mtDNA was amplified using primers specific for the mitochondrial cytochrome c oxidase subunit 2 (COX2) gene and normalized to genomic DNA by amplification of the ribosomal protein s18 (rps18) nuclear gene. Primers were designed using the IDT software (IDT) and the primer sequences can be found in Table 1."}, "VHL": {"system": "VHL", "test": "Immunoblot for VHL in gastrocnemius of treated mice", "type": "in vivo", "conditions": "6- and 22-month-old mice, NMN one week", "description": "(§1) C57BL/6J mice of 6, 22, or 30 months of age were obtained from the National Institutes of Aging mouse aging colony. Additionally 22 months old caloric restricted mice were also obtained from the National Institutes of Aging mouse aging colony. EGLN1 KO, SIRT1 KO and SIRT1 OE mice were generated as previously described (Minamishima et al., 2008; Price et al., 2012). Mice were acclimated for at least one-week prior to sacrifice. 3, 6, 22 and 24-month-old mice were given interperitoneal (IP) injections of 500 mg NMN/kg body weight per day or the equivalent volume of PBS for 7 consecutive days at 5:00 pm and 7:00 am on day 8 and sacrificed 4 hr after last injection.\nC57BL/6J mice of 3, 6, 22, or 24 months of age were obtained from the National Institutes of Aging mouse aging colony. […]\n(§2) Protein extracts from tissue were obtained by lysis in ice-cold lysis buffer (150 mM NaCl, 10 mM Tris HCl (pH 7.4), 1 mM EDTA, 1 mM EGTA, 1% Triton X-100, 0.5% NP-40) supplemented with a cocktail of protease and phosphatase inhibitors (Roche). Protein content was determined by the Bradford protein assay (Biorad), and 50 μg proteins were run on SDS-PAGE under reducing conditions. […] The immunostaining was detected using horseradish peroxidase-conjugated anti-rabbit or anti-mouse immunoglobulin for 1 h at room temperature."}, "lactate": {"system": "lactate", "test": "Lactate levels in skeletal muscle of treated mice", "type": "in vivo", "conditions": "6- and 22-month-old mice; NMN one week", "description": "as §1\nC57BL/6J mice of 3, 6, 22, or 24 months of age were obtained from the National Institutes of Aging mouse aging colony. Additionally 22 months old caloric restricted mice were also obtained from the National Institutes of Aging mouse aging colony. Mice were acclimated for at least one-week prior to sacrifice. 3, 6, 22 and 24-month-old mice were given interperitoneal (IP) injections of 500 mg NMN/kg body weight per day or the equivalent volume of PBS for 7 consecutive days at 5:00 pm and 7:00 am on day 8 and sacrificed 4 hr after last injection. […]\nLactate from skeletal muscle was quantified with a commercially available kit (BioVision) according to the manufacturer's instructions."}, "Atrogin-1 and MuRF1": {"system": "Atrogin-1 and MuRF1", "test": "Immunoblot for muscle wasting markers in gastrocnemius of treated mice", "type": "in vivo", "conditions": "old (22-month) mice; NMN one week; skeletal muscle", "description": "as §1\nas §2, with “tissue or C2C12 cells” for “tissue”, “conditions. The separated proteins were then electrophoretically transferred to a polyvinylidene difluoride membrane (Perkin-Elmer).” for “conditions.”"}, "NAD+": {"system": "NAD+", "test": "NAD+ levels in skeletal muscle of mice treated with NMN", "type": "in vivo, C57BL/6J mice", "conditions": "young and old", "protocol": "C57BL/6J mice of 3, 6, 22, 24, or 30 months of age were obtained from the National Institutes of Aging mouse aging colony. Mice were acclimated for at least one-week prior to sacrifice. 3, and 24-month-old mice were given interperitoneal (IP) injections of 500 mg NMN/kg body weight per day or the equivalent volume of PBS for 7 consecutive days at 5:00 pm and 7:00 am on day 8 and sacrificed 4 hr after last injection. All animal studies followed the guidelines of and were approved by the Harvard Institutional Animal Care and Use Committee\nNAD^+ from C2C12 cells and skeletal muscle was quantified with a commercially available kit (BioVision) according to the manufacturer's instructions and as described before (Gomes et al., Biochim. Biophys. Acta. 1822:185-195 (2012)).\nC57BL/6J mice of 6, 22, or 30 months of age were obtained from the National Institutes of Aging mouse aging colony. Additionally 22 months old caloric restricted mice were also obtained from the National Institutes of Aging mouse aging colony. EGLN1 KO, SIRT1 KO and SIRT1 OE mice were generated as previously described (Minamishima et al., 2008; Price et al., 2012). Mice were acclimated for at least one-week prior to sacrifice. […]\nNAD^+ from skeletal muscle was quantified with a commercially available kit (BioVision) according to the manufacturer's instructions and as described before (Gomes et al., 2012). […]"}, "[1]": {"system": "AKT and IRS-1 phosphorylation", "test": "Insulin signaling immunoblot (p-AKT, p-IRS-1) in muscle of treated mice", "type": "in vivo", "conditions": "old mice treated with NMN; soleus", "description": "as §1\nas §2, with “tissue or C2C12 cells” for “tissue”, “conditions. The separated proteins were then electrophoretically transferred to a polyvinylidene difluoride membrane (Perkin-Elmer).” for “conditions.”"}, "primary myoblasts": {"system": "primary myoblasts", "test": "qPCR of mitochondrial-encoded genes in primary myoblasts infected with NMNAT1 or nontargeting shRNA", "type": "cell-based, mouse", "conditions": "primary myoblasts with knockdown of NMNAT1"}, "[2]": {"system": "inflammatory markers (TNF-α, IL-6 and IL-18)", "test": "qPCR of inflammatory markers in gastrocnemius of treated mice", "type": "in vivo", "conditions": "old (22-month) mice; NMN one week; skeletal muscle", "description": "as §1\nRNA from skeletal muscle tissue and C2C12 cells were extracted with RNeasy mini kit (Qiagen) according to the instructions and quantified using the NanoDrop 1000 spectrophotometer (Thermo Scientific). cDNA was synthesized with the iSCRIP cDNA synthesis kit (BioRad) using 600 ng of RNA. Quantitative RT-PCR reactions were performed using 1 μM of primers and LightCycler® 480 SYBR Green Master (Roche) on an LightCycler® 480 detection system (Roche). Calculations were performed by a comparative method (2-ΔCT) using 18S as an internal control. […]"}}, "data": [{"smiles": "COC(=O)CNC(=O)C(=O)OC", "note": "[DMOG, dimethyloxaloylglycine]", "values": [{"measurement": "effect on NMN-induced expression of mitochondrially-encoded ETC genes", "setting": "PGC-1α/β KO myotubes; PGC-1α/β KO myotubes, NMN plus 1 mM DMOG or 10 μM DFO, 12 hours", "result": "completely abolished"}, {"measurement": "effect on NAD (pyruvate) mediated increases in mitochondrial-encoded genes", "setting": "PGC-1α/β KO myotubes; PGC-1α/β KO myotubes, pyruvate in presence of DMOG", "result": "inhibited"}, {"measurement": "expression of mitochondrial-encoded genes compared to vehicle control", "setting": "PGC-1α/β KO myotubes; PGC-1α/β knockout myotubes treated with DMOG", "result": "induced a decline in the expression of mitochondrial-encoded genes"}, {"measurement": "effect on induction of mitochondrial ETC genes by SIRT1 overexpression", "setting": "PGC-1α/β KO myotubes; PGC-1α/β knockout myotubes with SIRT1 adenovirus, 1 mM DMOG or 10 μM DFO", "result": "completely blocked"}]}, {"smiles": "NC(=O)c1ccc[n+]([C@@H]2O[C@H](COP(=O)([O-])O)[C@@H](O)[C@H]2O)c1", "note": "[NMN, nicotinamide mononucleotide]", "values": [{"measurement": "VHL protein", "setting": "VHL", "result": "reversed the age-induced decline in VHL"}, {"measurement": "expression of mitochondrially-encoded ETC genes (ND1, CYTB, COX1, ATP6)", "setting": "PGC-1α/β KO myotubes; PGC-1α/β KO myotubes incubated with NMN (12 h)", "result": "induced expression of mitochondrially-encoded ETC genes"}, {"measurement": "lactate levels in the skeletal muscle", "setting": "lactate", "result": "suppressed the increase in lactate levels"}, {"measurement": "muscle wasting markers Atrogin-1 and MuRF1", "setting": "Atrogin-1 and MuRF1", "result": "completely reversed these markers"}, {"measurement": "levels of cellular NAD+", "setting": "NAD+; 3- and 24-month-old C57BL/6J mice, NMN 500 mg/kg IP for one week, skeletal muscle", "result": "approximately 2 fold"}, {"measurement": "levels of cellular NAD+", "setting": "NAD+; 6- and 22-month-old C57BL/6J mice, NMN for one week", "result": 2, "unit": "fold"}, {"measurement": "age-induced insulin resistance in the skeletal muscle", "setting": "[1]", "result": "reverse age-induced insulin resistance"}, {"measurement": "phosphorylation of AKT and IRS-1", "setting": "[1]", "result": "increasing the phosphorylation"}, {"measurement": "ability of NMN to induce expression of mitochondrial-encoded genes", "setting": "primary myoblasts", "result": "completely abolishes the ability of NMN to induce the expression of mitochondrial-encoded genes"}, {"measurement": "expression of inflammation markers", "setting": "[2]", "result": "completely reversed these markers"}]}]}
